One test addresses T1, PI3Kdelta (Homo sapiens, UniProt O00329).
T1 construct: purchased Upstate; Millipore 14-604
Put plainly: HTRF PI3K biochemical assay, delta isoform. To be noted: 0.3 nM enzyme, 100 uM ATP, 5 uM PIP2, form screened (Neutral or TFA salt) given per compound. In short, it runs like this:
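PI3Kδ at 0.3 nM with 100 uM ATP and 5 uM PIP2, 10-point 3-fold dilutions, 15 min enzyme–compound pre-incubation, then 1 h reaction at room temperature. PIP3 formation detected by HTRF displacement of biotin-PIP3 from GST-GRP1-PH (665/620 nm ratio). IC50 corrected using a PIP3 standard curve.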
(In general: In TR-FRET formats the signal depends on donor and acceptor labels being close together.)

The target in the next test is T2, PI3Kalpha (Homo sapiens, UniProt P42336).
T2 construct: purchased Upstate; Millipore 14-602
T2 sequence (P42336 whole entry): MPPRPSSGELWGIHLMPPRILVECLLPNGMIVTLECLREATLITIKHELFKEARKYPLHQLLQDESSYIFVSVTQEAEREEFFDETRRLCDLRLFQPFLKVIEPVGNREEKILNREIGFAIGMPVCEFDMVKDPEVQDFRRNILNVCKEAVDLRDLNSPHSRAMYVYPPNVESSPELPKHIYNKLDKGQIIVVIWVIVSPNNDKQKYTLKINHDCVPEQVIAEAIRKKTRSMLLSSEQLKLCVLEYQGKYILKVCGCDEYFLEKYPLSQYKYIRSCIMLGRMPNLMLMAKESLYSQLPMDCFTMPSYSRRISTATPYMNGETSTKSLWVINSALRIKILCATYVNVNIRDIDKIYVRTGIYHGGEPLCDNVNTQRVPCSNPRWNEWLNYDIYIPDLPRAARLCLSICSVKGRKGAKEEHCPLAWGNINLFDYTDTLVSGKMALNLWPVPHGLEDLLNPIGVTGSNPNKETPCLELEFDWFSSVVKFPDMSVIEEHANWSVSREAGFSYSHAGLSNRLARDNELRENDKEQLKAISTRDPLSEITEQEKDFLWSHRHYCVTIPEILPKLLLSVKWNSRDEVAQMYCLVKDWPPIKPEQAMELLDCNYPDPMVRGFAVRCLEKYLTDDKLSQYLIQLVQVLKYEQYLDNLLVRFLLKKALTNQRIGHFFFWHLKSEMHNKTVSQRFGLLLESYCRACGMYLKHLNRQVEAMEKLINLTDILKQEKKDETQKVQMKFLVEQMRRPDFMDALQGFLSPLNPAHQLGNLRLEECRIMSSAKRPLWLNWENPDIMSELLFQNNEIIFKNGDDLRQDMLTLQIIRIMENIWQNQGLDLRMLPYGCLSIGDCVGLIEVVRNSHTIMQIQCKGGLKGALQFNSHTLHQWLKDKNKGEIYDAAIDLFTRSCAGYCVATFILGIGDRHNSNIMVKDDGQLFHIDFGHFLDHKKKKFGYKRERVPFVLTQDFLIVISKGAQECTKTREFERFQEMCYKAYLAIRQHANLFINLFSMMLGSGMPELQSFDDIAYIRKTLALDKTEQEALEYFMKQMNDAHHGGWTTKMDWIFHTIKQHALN
T2 sequence (P27986 whole entry partner): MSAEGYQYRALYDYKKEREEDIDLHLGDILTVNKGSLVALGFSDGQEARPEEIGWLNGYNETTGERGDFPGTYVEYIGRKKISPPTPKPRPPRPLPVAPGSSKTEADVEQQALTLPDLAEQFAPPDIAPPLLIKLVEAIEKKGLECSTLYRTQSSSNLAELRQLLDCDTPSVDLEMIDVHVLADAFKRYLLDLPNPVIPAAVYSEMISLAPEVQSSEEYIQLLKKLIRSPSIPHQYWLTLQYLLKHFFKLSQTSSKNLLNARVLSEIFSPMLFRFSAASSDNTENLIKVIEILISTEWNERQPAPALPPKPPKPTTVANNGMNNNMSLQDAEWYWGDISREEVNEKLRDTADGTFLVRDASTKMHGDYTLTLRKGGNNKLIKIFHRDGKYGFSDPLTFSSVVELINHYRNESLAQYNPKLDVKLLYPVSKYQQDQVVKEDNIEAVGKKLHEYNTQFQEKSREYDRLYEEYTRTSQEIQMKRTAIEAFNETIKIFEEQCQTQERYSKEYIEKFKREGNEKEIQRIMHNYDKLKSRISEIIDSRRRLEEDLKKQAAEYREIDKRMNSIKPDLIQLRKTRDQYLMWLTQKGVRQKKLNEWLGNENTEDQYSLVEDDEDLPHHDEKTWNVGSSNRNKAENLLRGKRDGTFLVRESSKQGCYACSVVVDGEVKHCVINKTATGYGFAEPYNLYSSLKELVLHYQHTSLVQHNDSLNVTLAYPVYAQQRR
Put plainly: HTRF PI3K biochemical assay, alpha isoform (selectivity versus delta). To be noted: relative ratio PI3K-alpha IC50 value / PI3K-delta IC50 value. In short, it runs like this:
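Recombinant PI3Kα (0.5 nM) pre-incubated 15 min with compound, then reacted 1 h at room temperature with 5 μM PIP2 and 100 μM ATP. After EDTA stop, PIP3 measured by HTRF displacement of biotin-PIP3 from GST-GRP1 PH domain (665/620 nm). 10-point dose response; IC50 corrected using a PIP3 standard curve.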

This note sets out measurements from patent US10100064B2, “Purine inhibitors of human phosphatidylinositol 3-kinase delta” (Merck Sharp & Dohme Corp., priority 2014, dated 2018).

T1 sequence (O00329 whole entry): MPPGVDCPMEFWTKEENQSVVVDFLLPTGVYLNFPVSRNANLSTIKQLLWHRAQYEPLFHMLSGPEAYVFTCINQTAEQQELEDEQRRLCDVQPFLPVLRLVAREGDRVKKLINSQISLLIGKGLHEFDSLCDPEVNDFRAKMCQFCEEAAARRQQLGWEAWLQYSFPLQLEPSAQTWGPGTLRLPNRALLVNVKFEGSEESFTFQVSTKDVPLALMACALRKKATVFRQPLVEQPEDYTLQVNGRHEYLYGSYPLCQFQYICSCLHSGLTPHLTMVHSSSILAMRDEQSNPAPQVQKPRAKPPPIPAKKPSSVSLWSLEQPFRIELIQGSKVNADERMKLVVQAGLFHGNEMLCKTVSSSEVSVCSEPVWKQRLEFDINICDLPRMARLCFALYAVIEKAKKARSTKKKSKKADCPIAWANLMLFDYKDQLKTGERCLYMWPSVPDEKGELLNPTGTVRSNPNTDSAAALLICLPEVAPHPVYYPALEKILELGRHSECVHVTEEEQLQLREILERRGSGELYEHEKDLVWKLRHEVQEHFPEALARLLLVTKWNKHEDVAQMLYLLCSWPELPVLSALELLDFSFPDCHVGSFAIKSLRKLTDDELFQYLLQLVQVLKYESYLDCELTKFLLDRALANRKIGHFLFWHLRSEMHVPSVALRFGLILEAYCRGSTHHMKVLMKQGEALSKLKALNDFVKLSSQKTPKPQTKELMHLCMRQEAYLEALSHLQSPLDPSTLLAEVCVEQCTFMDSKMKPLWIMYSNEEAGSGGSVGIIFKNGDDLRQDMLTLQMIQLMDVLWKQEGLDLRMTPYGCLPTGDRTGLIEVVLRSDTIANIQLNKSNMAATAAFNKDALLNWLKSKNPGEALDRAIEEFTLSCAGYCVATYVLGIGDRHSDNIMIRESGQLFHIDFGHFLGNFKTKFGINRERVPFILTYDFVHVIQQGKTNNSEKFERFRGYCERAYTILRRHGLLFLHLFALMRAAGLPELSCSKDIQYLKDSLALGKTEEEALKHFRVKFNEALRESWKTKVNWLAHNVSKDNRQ
T1 sequence (P27986 whole entry partner): as the sequence (P27986 whole entry partner) above

Usually IC50 stands for the concentration needed to halve the response being measured. Turning to `CCn1c(-c2cnc(C)nc2)nc2c(NC3CCc4nc(C(F)F)n(C5CC5)c4C3)ncnc21` (single isomer, unassigned) [Compound 5-10, (S or R)-N-[1-cyclopropyl-2-(difluoromethyl)-4,5,6,7-tetrahydro-1H-benzimidazol-6-yl]-9-ethyl-8-(2-methylpyrimidin-5-yl)-9H-purin-6-amine], the IC50 on PI3Kdelta is below 0.001 µM. For the same molecule, the “Selectivity versus PI3Kalpha” value on PI3Kalpha is on record as above 10.
As for `CCn1c(-c2cnc(C)nc2)nc2c(NC3CCc4nc(C(F)F)n(C5CC5)c4C3)ncnc21` (single isomer, unassigned) [Compound 5-11, (S or R)-N-[1-cyclopropyl-2-(difluoromethyl)-4,5,6,7-tetrahydro-1H-benzimidazol-6-yl]-9-ethyl-8-(2-methylpyrimidin-5-yl)-9H-purin-6-amine], the IC50 at PI3Kdelta worked out at 0.04 µM. In addition, the “Selectivity versus PI3Kalpha” value on PI3Kalpha is recorded as above 10.
As for `CCn1c(-c2cnc(C)nc2)nc2c(NC3CCc4ncn([C@H]5C[C@@H](OC)C5)c4C3)ncnc21` (single isomer, unassigned) [Compound 5-13, (S or R)-9-ethyl-N-[1-(cis-3-methoxycyclobutyl)-4,5,6,7-tetrahydro-1H-benzimidazol-6-yl]-8-(2-methylpyrimidin-5-yl)-9H-purin-6-amine], on PI3Kdelta, the 50% inhibitory concentration (IC50) is 0.0047 µM. Also, at PI3Kalpha, the “Selectivity versus PI3Kalpha” value was above 10.
Take `CCn1c(-c2cnc(C)nc2)nc2c(NC3CCc4ncn([C@H]5C[C@@H](OC)C5)c4C3)ncnc21` (single isomer, unassigned) [Compound 5-14, (S or R)-9-ethyl-N-[1-(cis-3-methoxycyclobutyl)-4,5,6,7-tetrahydro-1H-benzimidazol-6-yl]-8-(2-methylpyrimidin-5-yl)-9H-purin-6-amine]: at PI3Kdelta, the IC50 is 0.23 µM. Further, the “Selectivity versus PI3Kalpha” value on PI3Kalpha is reported as above 10.
Consider `CCn1c(-c2cnc(C)nc2)nc2c(NC3CCc4ncn(C(C)C)c4C3)ncnc21` (single isomer, unassigned) [Compound 5-15, (S or R)-9-ethyl-N-[1-(1-methylethyl)-4,5,6,7-tetrahydro-1H-benzimidazol-6-yl]-8-(2-methylpyrimidin-5-yl)-9H-purin-6-amine], for which the IC50 on PI3Kdelta came out at 0.0042 µM. For the same molecule, the “Selectivity versus PI3Kalpha” value at PI3Kalpha was above 10.
In the case of `CCn1c(-c2cnc(C)nc2)nc2c(NC3CCc4ncn(C(C)C)c4C3)ncnc21` (single isomer, unassigned) [Compound 5-16, (S or R)-9-ethyl-N-[1-(1-methylethyl)-4,5,6,7-tetrahydro-1H-benzimidazol-6-yl]-8-(2-methylpyrimidin-5-yl)-9H-purin-6-amine], on PI3Kdelta, the half-maximal inhibitory concentration (IC50) was found to be 0.384 µM. The “Selectivity versus PI3Kalpha” value at PI3Kalpha is recorded as above 10.
The matching figures for `CCn1c(-c2cnc(C)nc2)nc2c(NC3Cc4c(ncn4C(C)C)C(C)C3)ncnc21` (single isomer, unassigned) [Compound 5-17, 9-ethyl-N-[(4(S or R), 6(S or R)-4-methyl-1-(1-methylethyl)-4,5,6,7-tetrahydro-1H-benzimidazol-6-yl]-8-(2-methylpyrimidin-5-yl)-9H-purin-6-amine]: 0.009 µM and above 10.
Turning to `CCn1c(-c2cnc(C)nc2)nc2c(NC3Cc4c(ncn4C(C)C)C(C)C3)ncnc21` (single isomer, unassigned) [Compound 5-18, 9-ethyl-N-[(4(S or R), 6(S or R)-4-methyl-1-(1-methylethyl)-4,5,6,7-tetrahydro-1H-benzimidazol-6-yl]-8-(2-methylpyrimidin-5-yl)-9H-purin-6-amine], at PI3Kdelta, the IC50 was determined as 0.51 µM. For the same molecule, on PI3Kalpha, the “Selectivity versus PI3Kalpha” value is above 10.
For the molecule `CCn1c(-c2cnc(C)nc2)nc2c(NC3Cc4c(ncn4C(C)C)CC3C)ncnc21` (single isomer, unassigned) [Compound 5-19, 9-ethyl-N-[cis-5-methyl-1-(1-methylethyl)-4,5,6,7-tetrahydro-1H-benzimidazol-6-yl]-8-(2-methylpyrimidin-5-yl)-9H-purin-6-amine], the IC50 on PI3Kdelta worked out at 0.0017 µM. The “Selectivity versus PI3Kalpha” value at PI3Kalpha is given as above 10.
For the molecule `CCn1c(-c2cnc(C)nc2)nc2c(NC3Cc4c(ncn4C(C)C)CC3C)ncnc21` (single isomer, unassigned) [Compound 5-20, 9-ethyl-N-[trans-5-methyl-1-(1-methylethyl)-4,5,6,7-tetrahydro-1H-benzimidazol-6-yl]-8-(2-methylpyrimidin-5-yl)-9H-purin-6-amine], the concentration for half-maximal inhibition (IC50) on PI3Kdelta is 0.12 µM. The “Selectivity versus PI3Kalpha” value on PI3Kalpha is above 10.
On to `CCn1c(-c2cnc(C)nc2)nc2c(NC3CCc4ncn(C(C)C)c4C3C)ncnc21` (single isomer, unassigned) [Compound 5-21, 9-ethyl-N-[((6S, 7S) or (6R, 7R))-7-methyl-1-(1-methylethyl)-4,5,6,7-tetrahydro-1H-benzimidazol-6-yl]-8-(2-methylpyrimidin-5-yl)-9H-purin-6-amine], for which the IC50 on PI3Kdelta was 0.0057 µM. Moreover, the “Selectivity versus PI3Kalpha” value at PI3Kalpha is above 10.
With `CCn1c(-c2cnc(C)nc2)nc2c(NC3CCc4ncn(C(C)C)c4C3C)ncnc21` (single isomer, unassigned) [Compound 5-22, 9-ethyl-N-[((6S, 7S) or (6R, 7R))-7-methyl-1-(1-methylethyl)-4,5,6,7-tetrahydro-1H-benzimidazol-6-yl]-8-(2-methylpyrimidin-5-yl)-9H-purin-6-amine], the 50% inhibitory concentration (IC50) at PI3Kdelta worked out at 0.26 µM. Also, on PI3Kalpha, the “Selectivity versus PI3Kalpha” value is recorded as above 10.
The like results for `CCn1c(-c2cnc(C)nc2)nc2c(NC3CCn4cnc(C(C)C)c4C3)ncnc21` (single isomer, unassigned) [Compound 6-1, (S or R)-9-ethyl-N-[1-(1-methylethyl)-5,6,7,8-tetrahydroimidazo[1,5-a]pyridin-7-yl]-8-(2-methylpyrimidin-5-yl)-9H-purin-6-amine] were, in that order, 0.01 µM and above 10.
With `CCn1c(-c2cnc(C)nc2)nc2c(N[C@H]3Cc4nnc(C5CC5)n4C3)ncnc21` [Compound 1-38, N-[(6S)-3-cyclopropyl-6,7-dihydro-5H-pyrrolo[2,1-c][1,2,4]triazol-6-yl]-9-ethyl-8-(2-methylpyrimidin-5-yl)-9H-purin-6-amine], on PI3Kdelta, the concentration for half-maximal inhibition (IC50) was 0.005 µM. The “Selectivity versus PI3Kalpha” value at PI3Kalpha is above 10.
